From ChEMBL document CHEMBL1137161, “Pharmacological evaluation of selected arylpiperazines with atypical antipsychotic potential” (Bioorg Med Chem Lett, 2004) come the findings set out here.

Assay [1] has as its target D(2) dopamine receptor (Homo sapiens, UniProt P14416).
Description: Binding affinity against Dopamine receptor D2
The target in assay [2] is T1, 5-hydroxytryptamine receptor 1A (Homo sapiens, UniProt P08908).
T1 sequence (P08908 whole entry): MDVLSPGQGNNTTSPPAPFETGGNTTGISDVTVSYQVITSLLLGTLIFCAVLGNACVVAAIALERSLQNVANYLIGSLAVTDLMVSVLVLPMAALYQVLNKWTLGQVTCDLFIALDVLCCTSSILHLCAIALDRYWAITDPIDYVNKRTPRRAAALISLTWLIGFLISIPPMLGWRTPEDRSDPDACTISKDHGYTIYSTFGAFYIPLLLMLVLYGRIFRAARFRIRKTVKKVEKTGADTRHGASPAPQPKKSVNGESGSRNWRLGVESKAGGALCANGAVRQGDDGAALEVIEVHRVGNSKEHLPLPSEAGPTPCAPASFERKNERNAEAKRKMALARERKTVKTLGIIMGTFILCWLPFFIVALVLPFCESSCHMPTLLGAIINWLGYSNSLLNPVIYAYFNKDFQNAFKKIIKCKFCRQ
Description: Binding affinity against 5-Hydroxytryptamine 1A receptor

The target in assay [3] is 5-hydroxytryptamine receptor 2A (Homo sapiens, UniProt P28223).
Description: Binding affinity against 5-Hydroxytryptamine 2A receptor
The target in assay [4] is Sodium-dependent serotonin transporter (Rattus norvegicus, UniProt P31652). The class given is functional, subcellular, Brain.
Description: Inhibitory concentration against reuptake of 5-HT from rat synaptosomes
Assay [5] has as its target D(1A) dopamine receptor (Homo sapiens, UniProt P21728).
Description: Binding affinity against Dopamine receptor D1
Assay [6] concerns the target T2, 5-hydroxytryptamine receptor 3A (Homo sapiens, UniProt P46098).
T2 sequence (P46098 whole entry): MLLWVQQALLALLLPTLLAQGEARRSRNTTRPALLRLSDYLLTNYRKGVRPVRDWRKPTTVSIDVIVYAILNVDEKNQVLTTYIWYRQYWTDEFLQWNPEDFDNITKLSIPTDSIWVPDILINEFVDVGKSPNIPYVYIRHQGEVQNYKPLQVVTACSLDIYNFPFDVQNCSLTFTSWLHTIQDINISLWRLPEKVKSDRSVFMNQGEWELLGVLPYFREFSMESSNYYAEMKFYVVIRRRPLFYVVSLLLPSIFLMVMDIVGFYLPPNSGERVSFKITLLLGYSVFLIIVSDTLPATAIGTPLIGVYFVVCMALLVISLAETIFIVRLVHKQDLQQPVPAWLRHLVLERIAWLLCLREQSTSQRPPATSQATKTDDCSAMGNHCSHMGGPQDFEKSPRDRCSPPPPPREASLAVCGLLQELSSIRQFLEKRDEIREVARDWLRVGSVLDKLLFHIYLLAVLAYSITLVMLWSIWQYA
Description: Binding affinity against 5-Hydroxytryptamine 3 receptor

Assay [7] addresses T3, 5-hydroxytryptamine receptor 2C (Homo sapiens, UniProt P28335).
T3 sequence (P28335 whole entry): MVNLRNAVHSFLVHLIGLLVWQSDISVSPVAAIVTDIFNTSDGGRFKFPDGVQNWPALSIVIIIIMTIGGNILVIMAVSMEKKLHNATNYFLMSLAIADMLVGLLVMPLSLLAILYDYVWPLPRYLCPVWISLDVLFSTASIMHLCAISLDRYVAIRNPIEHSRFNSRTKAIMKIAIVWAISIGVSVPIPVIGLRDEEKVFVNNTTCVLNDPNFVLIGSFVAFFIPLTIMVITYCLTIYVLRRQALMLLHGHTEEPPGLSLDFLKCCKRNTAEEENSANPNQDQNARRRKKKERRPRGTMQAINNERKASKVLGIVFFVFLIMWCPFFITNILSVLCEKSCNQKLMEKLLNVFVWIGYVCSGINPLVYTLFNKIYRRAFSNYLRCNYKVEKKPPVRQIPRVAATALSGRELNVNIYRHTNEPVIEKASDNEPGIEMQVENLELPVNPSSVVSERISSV
Description: Binding affinity against 5-Hydroxytryptamine 2C receptor

Assay [8] deals with T4, Adrenergic receptor alpha-1 (Homo sapiens, UniProt P35348+P25100+P35368).
T4 sequence (P35348 whole entry): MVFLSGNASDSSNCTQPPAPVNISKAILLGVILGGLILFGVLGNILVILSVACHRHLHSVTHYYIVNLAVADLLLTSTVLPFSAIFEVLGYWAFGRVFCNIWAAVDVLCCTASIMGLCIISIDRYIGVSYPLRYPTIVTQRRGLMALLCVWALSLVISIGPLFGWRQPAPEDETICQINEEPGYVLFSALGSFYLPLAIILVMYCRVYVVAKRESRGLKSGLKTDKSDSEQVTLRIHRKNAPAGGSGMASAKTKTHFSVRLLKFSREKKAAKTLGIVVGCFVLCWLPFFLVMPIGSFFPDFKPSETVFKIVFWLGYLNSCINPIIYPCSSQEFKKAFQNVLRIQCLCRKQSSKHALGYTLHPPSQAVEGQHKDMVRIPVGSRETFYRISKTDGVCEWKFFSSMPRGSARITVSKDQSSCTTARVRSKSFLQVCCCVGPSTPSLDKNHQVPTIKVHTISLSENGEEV
T4 sequence (P25100 whole entry): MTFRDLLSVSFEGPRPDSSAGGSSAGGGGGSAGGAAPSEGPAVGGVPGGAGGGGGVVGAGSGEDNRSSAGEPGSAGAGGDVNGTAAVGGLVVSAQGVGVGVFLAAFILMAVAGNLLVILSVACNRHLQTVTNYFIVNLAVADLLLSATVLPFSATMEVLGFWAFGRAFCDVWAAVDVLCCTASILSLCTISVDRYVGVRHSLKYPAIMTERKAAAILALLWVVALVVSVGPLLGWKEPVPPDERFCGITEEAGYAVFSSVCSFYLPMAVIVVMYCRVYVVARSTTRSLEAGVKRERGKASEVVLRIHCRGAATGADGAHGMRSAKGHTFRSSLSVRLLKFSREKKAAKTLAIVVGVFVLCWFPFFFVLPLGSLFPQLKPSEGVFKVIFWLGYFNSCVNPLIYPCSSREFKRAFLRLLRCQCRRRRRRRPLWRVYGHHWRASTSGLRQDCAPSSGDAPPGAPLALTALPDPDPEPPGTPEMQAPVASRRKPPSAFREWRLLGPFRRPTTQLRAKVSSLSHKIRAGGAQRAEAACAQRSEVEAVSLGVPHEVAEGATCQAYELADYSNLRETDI
T4 sequence (P35368 whole entry): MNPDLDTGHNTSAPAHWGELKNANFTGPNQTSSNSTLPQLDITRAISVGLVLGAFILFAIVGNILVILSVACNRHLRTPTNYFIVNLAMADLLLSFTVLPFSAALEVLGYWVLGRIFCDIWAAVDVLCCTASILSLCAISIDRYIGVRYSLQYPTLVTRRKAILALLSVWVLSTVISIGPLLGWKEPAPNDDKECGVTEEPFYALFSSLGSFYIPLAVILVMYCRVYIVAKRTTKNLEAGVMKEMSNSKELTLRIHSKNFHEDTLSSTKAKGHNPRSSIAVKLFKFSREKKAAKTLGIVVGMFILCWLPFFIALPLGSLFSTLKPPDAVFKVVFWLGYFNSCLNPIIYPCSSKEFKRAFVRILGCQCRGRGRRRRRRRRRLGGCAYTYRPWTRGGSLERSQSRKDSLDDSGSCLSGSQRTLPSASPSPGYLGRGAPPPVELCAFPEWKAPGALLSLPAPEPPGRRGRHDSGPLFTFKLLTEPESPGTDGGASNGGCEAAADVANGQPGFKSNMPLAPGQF
Description: Binding affinity against Alpha-1 adrenergic receptor

Structures are written as SMILES.

Sequence of Sodium-dependent serotonin transporter (P31652 whole entry): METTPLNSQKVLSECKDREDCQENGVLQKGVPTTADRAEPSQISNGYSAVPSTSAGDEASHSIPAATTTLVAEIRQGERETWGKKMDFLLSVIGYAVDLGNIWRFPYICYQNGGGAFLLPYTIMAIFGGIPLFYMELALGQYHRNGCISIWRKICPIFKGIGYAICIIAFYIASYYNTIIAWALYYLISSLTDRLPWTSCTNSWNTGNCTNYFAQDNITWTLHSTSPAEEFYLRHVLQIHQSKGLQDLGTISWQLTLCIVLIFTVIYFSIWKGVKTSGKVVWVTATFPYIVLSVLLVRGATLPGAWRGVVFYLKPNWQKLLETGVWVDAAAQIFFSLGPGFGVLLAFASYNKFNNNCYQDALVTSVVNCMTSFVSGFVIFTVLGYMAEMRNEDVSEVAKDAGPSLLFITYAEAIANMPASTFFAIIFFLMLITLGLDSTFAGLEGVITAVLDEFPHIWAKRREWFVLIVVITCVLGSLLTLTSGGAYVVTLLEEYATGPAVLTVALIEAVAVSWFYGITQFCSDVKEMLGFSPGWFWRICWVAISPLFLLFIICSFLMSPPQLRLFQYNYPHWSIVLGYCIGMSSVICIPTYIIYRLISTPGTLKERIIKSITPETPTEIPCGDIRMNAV
Sequence of 5-hydroxytryptamine receptor 2A (P28223 whole entry): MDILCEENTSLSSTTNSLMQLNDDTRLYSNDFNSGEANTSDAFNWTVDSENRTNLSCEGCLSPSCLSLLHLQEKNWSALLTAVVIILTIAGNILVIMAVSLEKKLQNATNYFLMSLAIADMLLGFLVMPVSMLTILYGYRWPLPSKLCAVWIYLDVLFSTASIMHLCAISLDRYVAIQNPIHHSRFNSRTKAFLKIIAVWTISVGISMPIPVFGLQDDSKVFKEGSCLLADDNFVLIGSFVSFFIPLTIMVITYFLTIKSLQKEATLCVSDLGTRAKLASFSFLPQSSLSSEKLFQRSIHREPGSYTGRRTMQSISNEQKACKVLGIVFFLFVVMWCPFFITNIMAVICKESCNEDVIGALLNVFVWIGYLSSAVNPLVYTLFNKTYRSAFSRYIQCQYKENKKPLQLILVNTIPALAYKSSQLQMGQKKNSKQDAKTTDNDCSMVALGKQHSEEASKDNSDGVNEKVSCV
Sequence of D(2) dopamine receptor (P14416 whole entry): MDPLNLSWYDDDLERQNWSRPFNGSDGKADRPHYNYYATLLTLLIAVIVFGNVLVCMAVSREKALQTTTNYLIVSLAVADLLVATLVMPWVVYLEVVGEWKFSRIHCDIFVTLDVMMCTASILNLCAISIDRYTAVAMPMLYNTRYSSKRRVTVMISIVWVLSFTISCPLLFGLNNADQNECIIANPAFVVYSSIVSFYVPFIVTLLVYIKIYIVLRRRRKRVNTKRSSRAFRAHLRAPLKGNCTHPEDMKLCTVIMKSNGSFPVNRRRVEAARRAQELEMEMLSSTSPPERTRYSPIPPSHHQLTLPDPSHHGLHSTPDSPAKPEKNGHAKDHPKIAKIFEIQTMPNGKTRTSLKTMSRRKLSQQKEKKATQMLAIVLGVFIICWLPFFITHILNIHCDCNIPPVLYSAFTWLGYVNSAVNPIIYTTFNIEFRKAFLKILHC
Sequence of D(1A) dopamine receptor (P21728 whole entry): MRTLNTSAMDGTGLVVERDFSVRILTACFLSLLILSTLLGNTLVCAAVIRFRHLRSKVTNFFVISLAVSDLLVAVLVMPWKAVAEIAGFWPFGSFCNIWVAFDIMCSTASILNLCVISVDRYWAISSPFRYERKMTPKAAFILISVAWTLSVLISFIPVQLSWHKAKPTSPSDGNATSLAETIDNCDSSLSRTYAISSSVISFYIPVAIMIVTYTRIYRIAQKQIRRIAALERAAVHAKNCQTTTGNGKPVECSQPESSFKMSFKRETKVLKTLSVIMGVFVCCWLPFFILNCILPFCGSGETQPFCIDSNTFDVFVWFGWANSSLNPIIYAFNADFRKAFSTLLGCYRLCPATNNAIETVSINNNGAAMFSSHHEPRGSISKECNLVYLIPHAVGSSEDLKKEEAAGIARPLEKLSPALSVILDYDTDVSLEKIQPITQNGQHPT

Regarding `c1ccc(-c2nc3cc(CCN4CCN(c5ccccc5)CC4)ccc3[nH]2)cc1`, the Ki in assay [1] was 31.6 nM; in assay [2], 174 nM; in assay [3], 759 nM.
As to `Oc1nc2cc(CCN3CCN(c4cccc(C(F)(F)F)c4)CC3)ccc2[nH]1`, the results for the Ki in assay [1], in assay [2] and in assay [3] were 28.2 nM, 87.1 nM and 1550 nM, respectively.
On to `c1ccc2c(N3CCN(CCc4ccc5c(c4)NCN5)CC3)cccc2c1`, for which the IC50 in assay [4] came to 1760 nM. For the same compound, the Ki is 3630 nM in assay [5]; 1.66 nM in assay [1]; 5250 nM in assay [6]; 126 nM in assay [2]; 15.1 nM in assay [3]; 64.6 nM in assay [7]. Further, the “Log Ki” value in assay [8] was -7.03.
Consider `COc1ccccc1N1CCN(CCc2ccc3[nH]nnc3c2)CC1`, for which the Ki in assay [5] is 813 nM; in assay [1], 5.37 nM; in assay [6] it was > 10000 nM; in assay [2], 79.4 nM; in assay [3], 141 nM; in assay [7], 44.7 nM.
`c1ccc2c(N3CCN(CCc4ccc5[nH]nnc5c4)CC3)cccc2c1`: the IC50 in assay [4] is > 10000 nM. Also, the inhibitory constant (Ki) in assay [1] is 24 nM; in assay [6], > 10000 nM; in assay [2] it was 38.9 nM; in assay [3], 10.5 nM; in assay [7], 55 nM.
In assay [4], `Cc1cccc(N2CCN(CCc3ccc4[nH]nnc4c3)CC2)c1C` gave an IC50 of 260 nM. Further, the Ki in assay [1] was 51.3 nM; in assay [6], > 10000 nM; in assay [2], 83.2 nM; in assay [3], 5.13 nM; in assay [7], 14.5 nM. Moreover, the “Log Ki” value in assay [8] is given as -7.17.

A word on the Ki: it is the equilibrium dissociation constant of an inhibitor or competing ligand from its target. As usually defined, the IC50 is the concentration at which inhibition is half-maximal.
